Assay results published in patent US4206215A, “Antimicrobial bis-[4-(substituted-amino)-1-pyridinium]alkanes” (Sterling Drug Inc., priority 1977, dated 1980).

How the values were obtained:
A. niger 16404 = assay: In vitro antifungal activity, MIC (modified Autotiter method); type: cell-based, Aspergillus niger; details: 18-20 hours at 37° C.; for MIC: Aspergillus niger, 16404, 20 h, read-out: MIC A. niger 16404
Method: (§1) The antibacterial and antifungal activity of representative examples of the compounds of Formula I was determined using a modification of the Autotiter method described by Goss, et al. Applied Microbiology 16 (9) 1,414-1,416 (1968) in which a 1,000 mcg./ml. solution of the test compound is prepared. To the first cup of the Autotray is added 0.1 ml. of the test solution. Activation of the Autotiter initiates a sequence of operations by which 0.05 ml. of the test compound solution is withdrawn from the cup by a Microtiter transfer loop and diluted in 0.05 ml. of sterile water. Following this operation, 0.05 ml. of inoculated double-strength semisynthetic medium (glucose) is added automatically to each cup. The overall operation results in final drug concentrations ranging from 500 to 0.06 mcg./ml. in twofold decrements. […] The compounds were thus tested as solutions against a variety of gram positive and gram negative bacteria including Staphylococcus aureus, Proteus mirabilis, Escherichia coli, Klebsiella pneumoniae, Pseudomonas aeruginosa, Streptococcus pyogenes, and against such fungi as Aspergillus niger, Candida albicans and Trichophyton mentagrophytes.

P. mirab. MGH-1 = assay: In vitro antibacterial activity, MIC (modified Autotiter method); type: cell-based, Proteus mirabilis; details: 18-20 hours at 37° C.; for MIC: Proteus mirabilis, 20 h, read-out: MIC P. mirab. MGH-1
Method: as §1

C. albicans Wisc. = assay: In vitro antifungal activity, MIC (modified Autotiter method); type: cell-based, Candida albicans; details: 18-20 hours at 37° C.; for MIC: Candida albicans, 20 h, read-out: MIC C. albicans Wisc.
Method: as §1

C. albicans 10231 = assay: as above; type: cell-based, Candida albicans; details: 18-20 hours at 37° C.; for MIC: Candida albicans, 10231, 20 h, read-out: MIC C. albicans 10231
Method: as §1

S. pyogen. C203 = assay: In vitro antibacterial activity, MIC (modified Autotiter method); type: cell-based, Streptococcus pyogenes; details: 18-20 hours at 37° C.; for MIC: Streptococcus pyogenes, 20 h, read-out: MIC S. pyogen. C203
Method: as §1

K. pneum. 39645 = assay: as above; type: cell-based, Klebsiella pneumoniae; details: 18-20 hours at 37° C.; for MIC: Klebsiella pneumoniae, 20 h, read-out: MIC K. pneum. 39645
Method: as §1

T. menta. 9129 = assay: In vitro antifungal activity, MIC (modified Autotiter method); type: cell-based, Trichophyton mentagrophytes; details: 18-20 hours at 37° C.; for MIC: Trichophyton mentagrophytes, 20 h, read-out: MIC T. menta. 9129
Method: as §1

Ps. aerug. MGH-2 = assay: In vitro antibacterial activity, MIC (modified Autotiter method); type: cell-based, Pseudomonas aeruginosa; details: 18-20 hours at 37° C.; for MIC: Pseudomonas aeruginosa, 20 h, read-out: MIC Ps. aerug. MGH-2
Method: as §1

S. Aureus Smith = assay: as above; type: cell-based, Staphylococcus aureus; details: 18-20 hours at 37° C.; for MIC: Staphylococcus aureus, 20 h, read-out: MIC S. Aureus Smith
Method: as §1

E. coli AB1932-1 = assay: as above; type: cell-based, Escherichia coli; details: 18-20 hours at 37° C.; for MIC: Escherichia coli, AB19321, 20 h, read-out: MIC E. coli AB1932-1
Method: as §1

E. coli 100/B22 = assay: as above; type: cell-based, Escherichia coli; details: 18-20 hours at 37° C.; for MIC: Escherichia coli, 100/B22, 20 h, read-out: MIC E. coli 100/B22
Method: as §1

E. coli Vogel = assay: as above; type: cell-based, Escherichia coli; details: 18-20 hours at 37° C.; for MIC: Escherichia coli, 20 h, read-out: MIC E. coli Vogel
Method: as §1

Row | SMILES | MIC (A. niger 16404) [mg/L] | MIC (P. mirab. MGH-1) [mg/L] | MIC (C. albicans Wisc.) [mg/L] | MIC (C. albicans 10231) [mg/L] | MIC (S. pyogen. C203) [mg/L] | MIC (K. pneum. 39645) [mg/L] | MIC (T. menta. 9129) [mg/L] | MIC (Ps. aerug. MGH-2) [mg/L] | MIC (S. Aureus Smith) [mg/L] | MIC (E. coli AB1932-1) [mg/L] | MIC (E. coli 100/B22) [mg/L] | MIC (E. coli Vogel) [mg/L] | also measured
1 | CCCCCCCNc1cc[n+](CCCCCC[n+]2ccc(NCCCCCCC)cc2)cc1 [Example 62C, 1,6-bis-[4-(heptylamino)-1-pyridinium]hexane dichloride] | – | – | – | – | – | – | – | – | – | – | – | – | MIC A. niger 16404 (A. niger 16404): 7.8 mg/L; MIC P. mirab. MGH-1 (P. mirab. MGH-1): > 125 mg/L; MIC C. albicans Wisc. (C. albicans Wisc.): 3.9 mg/L; MIC C. albicans 10231 (C. albicans 10231): 3.9 mg/L; MIC S. pyogen. C203 (S. pyogen. C203): 0.98 mg/L; MIC K. pneum. 39645 (K. pneum. 39645): 3.9 mg/L; MIC T. menta. 9129 (T. menta. 9129): 3.9 mg/L; MIC Ps. aerug. MGH-2 (Ps. aerug. MGH-2): > 62.5 mg/L; MIC S. Aureus Smith (S. Aureus Smith): 0.24 mg/L; MIC E. coli AB1932-1 (E. coli AB1932-1): 1.95 mg/L; MIC E. coli 100/B22 (E. coli 100/B22): 1.95 mg/L; MIC E. coli Vogel (E. coli Vogel): 3.9 mg/L
2 | Clc1ccc(Nc2cc[n+](CCCC[n+]3ccc(Nc4ccc(Cl)cc4)cc3)cc2)cc1 [Example 76C, 1,4-bis-[4-(p-chlorophenylamino)-1-pyridinium]butane dimethanesulfonate] | > 250 | > 250 | 12.5 | 125 | 1.95 | > 250 | 62.5 | > 125 | 7.8 | 7.8 | 15.6 | 15.6 | –
3 | Clc1ccc(Nc2cc[n+](CCCCCCCC[n+]3ccc(Nc4ccc(Cl)cc4)cc3)cc2)cc1 [Example 78B, 1,8-bis-[4-(p-chlorophenylamino)-1-pyridinium]octane dimethanesulfonate] | 31.3 | 125 | 62.5 | 62.5 | 0.2 | 31.3 | 31.3 | 125 | 0.4 | 1.6 | 3.1 | 3.1 | –
4 | CCCCCCCCNc1cc[n+](CCCCCCCCCCCCCC[n+]2ccc(NCCCCCCCC)cc2)cc1 [Example 46, 1,14-bis-[4-(octylamino)-1-pyridinium]tetradecane dibromide] | 15.6 | 3.9 | 7.8 | 7.8 | 1.95 | 7.8 | 1.95 | 3.9 | 1 | 3.9 | 3.9 | 7.8 | –
5 | Fc1ccc(Nc2cc[n+](CCCCCCCC[n+]3ccc(Nc4ccc(F)cc4)cc3)cc2)cc1 [Example 84, 1,8-bis-[4-p-fluorophenylamino)-1-pyridinium]octane dibromide] | 15.6 | > 125 | 7.8 | 15.6 | 7.8 | > 62.5 | 15.6 | > 62.5 | 1.95 | 7.8 | 15.6 | 15.6 | –
6 | CCCCCCCNc1cc[n+](CCCC[n+]2ccc(NCCCCCCC)cc2)cc1 [Example 20, 1,4-bis-[4-(heptylamino)-1-pyridinium]butane dibromide] | 15.6 | > 250 | 15.6 | 15.6 | 0.49 | > 125 | 3.9 | > 250 | 0.98 | 7.8 | 15.6 | 31.3 | –
7 | CCCCCCCCCNc1cc[n+](CCCCCCC[n+]2ccc(NCCCCCCCCC)cc2)cc1 [Example 49, 1,7-bis-[4-(nonylamino)-1-pyridinium]heptane dibromide] | 7.8 | 3.9 | 1.95 | 1.95 | 1 | 1.95 | 1 | 15.6 | 0.5 | 1.95 | 1.95 | 1 | –
8 | c1c[n+](CCCCCCCC[n+]2ccc(NC3CCCCC3)cc2)ccc1NC1CCCCC1 [Example 38, 1,8-bis-[4-(cyclohexylamino)-1-pyridinium]octane dibromide] | 15.6 | > 125 | 31.3 | 31.3 | 0.93 | > 125 | 3.9 | 250 | 3.9 | 31.3 | 62.5 | 62.5 | –
9 | CCCCCCNc1cc[n+](CCCCCCCCCCCC[n+]2ccc(NCCCCCC)cc2)cc1 [Example 8] | – | 7.8 | 1 | 1 | 1 | 1 | – | 15.6 | 0.25 | – | 0.5 | – | MIC A. niger 16404 (A. niger 16404): 7.8 mg/L; MIC T. menta. 9129 (T. menta. 9129): 1.0 mg/L; MIC E. coli AB1932-1 (E. coli AB1932-1): 1.0 mg/L; MIC E. coli Vogel (E. coli Vogel): 1.0 mg/L
10 | CCCNc1cc[n+](CCCCCCCCCC[n+]2ccc(NCCC)cc2)cc1 [Example 30, 1,10-bis-[4-(propylamino)-1-pyridinium]decane dibromide] | 31.3 | > 250 | 7.8 | 15.6 | 3.9 | > 62.5 | 1 | > 62.5 | 1.95 | > 62.5 | > 62.5 | > 62.5 | –
11 | CCCCCCNc1cc[n+](CCCCCCCC[n+]2ccc(NCCCCCC)cc2)cc1 [Example 32, 1,8-bis-[4-(hexylamino)-1-pyridinium]octane dibromide] | 7.8 | > 250 | 3.9 | 3.9 | 0.49 | 7.8 | 7.8 | 125 | 0.24 | 1.95 | 3.9 | 3.9 | –
12 | CCCCCCCCCNc1cc[n+](CCCCCCCCCCCC[n+]2ccc(NCCCCCCCCC)cc2)cc1 [Example 52, 1,12-bis-[4-(nonylamino)1-pyridinium]dodecane dibromide] | 15.6 | 3.9 | 7.8 | 7.8 | 1.95 | 3.9 | 1.95 | 3.9 | 1.95 | 7.8 | 3.9 | 3.9 | –
13 | CCCCCCCCCCNc1cc[n+](CCCCCCCCCCCC[n+]2ccc(NCCCCCCCCCC)cc2)cc1 [Example 69, 1,12-bis-[4-(decylamino)-1-pyridinium]dodecane dibromide] | 15.6 | 15.6 | 15.6 | 15.6 | 3.9 | 31.3 | 3.9 | 15.6 | 1.95 | 31.3 | 15.6 | 7.8 | –
14 | CCCCCCCCCNc1cc[n+](CCCCCC[n+]2ccc(NCCCCCCCCC)cc2)cc1 [Example 48] | – | – | – | – | – | – | – | – | – | – | – | – | MIC A. niger 16404 (A. niger 16404): 3.9 mg/L; MIC P. mirab. MGH-1 (P. mirab. MGH-1): 7.8 mg/L; MIC C. albicans Wisc. (C. albicans Wisc.): 1.95 mg/L; MIC C. albicans 10231 (C. albicans 10231): 1.95 mg/L; MIC S. pyogen. C203 (S. pyogen. C203): 1.0 mg/L; MIC K. pneum. 39645 (K. pneum. 39645): 3.9 mg/L; MIC T. menta. 9129 (T. menta. 9129): 1.0 mg/L; MIC Ps. aerug. MGH-2 (Ps. aerug. MGH-2): 15.6 mg/L; MIC S. Aureus Smith (S. Aureus Smith): 1.0 mg/L; MIC E. coli AB1932-1 (E. coli AB1932-1): 1.95 mg/L; MIC E. coli 100/B22 (E. coli 100/B22): 1.95 mg/L; MIC E. coli Vogel (E. coli Vogel): 1.95 mg/L
